Data reported in DBAASP.
Converted amounts (≈) assume the structure as drawn. “And” between values parts separate entries of the source, which are not always exact repeats. Identical values can stand only once.

Experiments:
Test in all cases: ≥ marks a high value that may be exact or a test limit, other limits are often not marked, values filed in µg/mL are converted to µM
[1] = tested on: Cryptococcus neoformans L26
[2] = tested on: Trichophyton mentagrophytes
[3] = tested on: Cryptococcus neoformans L30
[4] = tested on: Trichophyton rubrum
[5] = tested on: Candida albicans 38U
[6] = tested on: Candida parapsilosis
[7] = tested on: Candida albicans 01U
[8] = tested on: Escherichia coli D31
[9] = tested on: Staphylococcus aureus ATCC 25923
[10] = tested on: Klebsiella pneumoniae ATCC 13883
[11] = tested on: Pseudomonas aeruginosa ATCC 27853
[12] = tested on: Candida albicans ATCC 14053
[13] = tested on: Listeria monocytogenes DBFIQ LM3
[14] = tested on: Staphylococcus aureus DBFIQ S21
[15] = tested on: Pseudomonas syringae pv. syringae DSM 10604
[16] = tested on: Pectobacterium carotovorum subsp. carotovorum DSM 30168
[17] = tested on: Staphylococcus aureus 90857
[18] = tested on: Clavibacter michiganensis subsp. michiganensis DSM 46294
[19] = tested on: Pseudomonas corrugata DSM 7228
[20] = tested on: Pseudomonas syringae pv. tomato DC3000
[21] = tested on: Xanthomonas vesicatoria DSM 50861
[22] = tested on: Escherichia coli D21
[23] = tested on: Aspergillus fumigatus ATCC 26430
[24] = tested on: Acinetobacter baumannii ATCC 19606
[25] = tested on: Escherichia coli ATCC 25922
[26] = tested on: Enterococcus faecalis ATCC 19433
[27] = tested on: Staphylococcus aureus II ATCC 6538P

`CC[C@H](C)[C@H](NC(=O)[C@H](CC(C)C)NC(=O)[C@H](CCC(=O)O)NC(=O)[C@H](CO)NC(=O)[C@H](CCCN=C(N)N)NC(=O)[C@@H](N)CO)C(=O)N[C@H](C(=O)N[C@@H](Cc1cnc[nH]1)C(=O)N[C@@H](CCC(N)=O)C(=O)N[C@@H](CCCN=C(N)N)C(N)=O)C(C)C` [SRSELIVHQR] was tested, and the MIC [1] was ≥ 105 µM, the MIC [2] was ≥ 209 µM and the MIC [3] was ≥ 209 µM. The MIC [4] was 26.1 µM (≈ 32 µg/mL), the MIC [5] was 26.1 µM (≈ 32 µg/mL) and the MIC [6] was ≥ 209 µM. The MIC [7] was ≥ 52.3 µM.
An MIC [8] of 4.23 µM (≈ 17.3 µg/mL), an MIC [9] of 8.64 µM (≈ 35.3 µg/mL) and an MIC [10] of 4.23 µM (≈ 17.3 µg/mL) were found for `CC[C@H](C)[C@@H]1NC(=O)CNC(=O)[C@H](CCCCN)NC(=O)[C@H](CC(N)=O)NC(=O)[C@H](CCCNC(=N)N)NC(=O)[C@H](C(C)C)NC(=O)[C@@H](NC(=O)[C@H](CO)NC(=O)[C@@H](NC(=O)[C@@H]2CCCN2C(=O)[C@@H](N)CC(N)=O)C(C)C)CSSC[C@@H]2NC(=O)[C@H](CCCCN)NC(=O)[C@H](C(C)C)NC(=O)[C@H](C)NC(=O)[C@H](CCCNC(=N)N)NC(=O)CNC(=O)[C@H](C(C)C)NC(=O)[C@@H]3CSSC[C@H](NC1=O)C(=O)N[C@@H](C(C)C)C(=O)N1CCC[C@H]1C(=O)N[C@@H]([C@@H](C)CC)C(=O)N[C@@H](CCCNC(=N)N)C(=O)N[C@@H](CSSC[C@@H](C(=O)N[C@@H](CCCNC(=N)N)C(=O)N[C@@H](CCCCN)C(=O)N[C@@H](CCCCN)C(=O)O)NC2=O)C(=O)N1CCC[C@H]1C(=O)NCC(=O)N[C@@H](CO)C(=O)N[C@@H](CCSC)C(=O)N[C@@H](CCCCN)C(=O)N[C@@H](CCC(N)=O)C(=O)N[C@@H]([C@@H](C)CC)C(=O)NCC(=O)N[C@@H]([C@@H](C)O)C(=O)N3` [NPVSCVRNKGICVPIRCPGSMKQIGTCVGRAVKCCRKK] in this work. It also gave an MIC [11] of 8.64 µM (≈ 35.3 µg/mL) and an MIC [12] of 2.07 µM (≈ 8.47 µg/mL).
An MIC [13] of 17.8 µM (≈ 32.1 µg/mL) and an MIC [14] of 8.9 µM (≈ 16 µg/mL) were found for `CC[C@H](C)[C@H](NC(=O)[C@H](C)NC(=O)[C@@H](NC(=O)[C@H](C)NC(=O)CN)[C@@H](C)O)C(=O)N[C@@H](CCCCN)C(=O)N[C@@H](CCC(N)=O)C(=O)N[C@H](C(=O)N[C@@H](CCCCN)C(=O)N[C@@H](CCCCN)C(=O)N[C@@H](CC(C)C)C(=O)N[C@@H](Cc1ccccc1)C(=O)N[C@@H](CCCCN)C(=O)N[C@@H](CCCCN)C(=O)N[C@@H](CCCCN)C(=O)NCC(=O)NCC(N)=O)C(C)C` [GATAIKQVKKLFKKKGG] in this work.
An MIC [15] of 6.15 µM (≈ 9.99 µg/mL), an MIC [16] of 6.15 µM (≈ 9.99 µg/mL) and an MIC [17] of 6.25 µM (≈ 10.2 µg/mL) were found for `CC[C@H](C)[C@H](NC(=O)[C@H](CCCN=C(N)N)NC(=O)[C@@H](N)CC(C)C)C(=O)N[C@@H](CC(C)C)C(=O)N[C@@H](CCCN=C(N)N)C(=O)N[C@@H](CCCN=C(N)N)C(=O)N[C@@H](CC(C)C)C(=O)N[C@@H](CC(C)C)C(=O)N[C@@H](CCCN=C(N)N)C(=O)N[C@@H](CCCN=C(N)N)C(=O)N[C@@H](CC(C)C)C(=O)N[C@@H](Cc1ccccc1)C(N)=O` [LRILRRLLRRLF] in this work. It also gave an MIC [18] of 3.08 µM (≈ 5 µg/mL), an MIC [19] of 1.54 µM (≈ 2.5 µg/mL) and an MIC [20] of 0.615 µM (≈ 0.999 µg/mL). The MIC [21] was 3.08 µM (≈ 5 µg/mL).
`CC(C)C[C@H](NC(=O)[C@H](CCCN=C(N)N)NC(=O)[C@H](CCCN=C(N)N)NC(=O)[C@H](CC(C)C)NC(=O)[C@H](CC(C)C)NC(=O)[C@H](CCCN=C(N)N)NC(=O)[C@H](CCCN=C(N)N)NC(=O)[C@H](CC(C)C)NC(=O)[C@H](CC(C)C)NC(=O)[C@H](CCCN=C(N)N)NC(=O)[C@H](CCCN=C(N)N)NC(=O)[C@H](CC(C)C)NC(=O)[C@H](C)NC(=O)[C@H](CC(=O)O)NC(=O)[C@@H](N)CC(=O)O)C(=O)O` [DDALRRLLRRLLRRL] was tested, and the MIC [22] was ≥ 50 µM, the MIC [23] was 6.2 µM and 3.1 µM and the MIC [24] was 75 µM and 100 µM. For the same compound, the MIC [25] was 100 µM (≈ 194 µg/mL), the MIC [26] was ≥ 100 µM and the MIC [27] was ≥ 50 µM and 31 µM. It also gave an MIC [11] of 50 µM (≈ 96.8 µg/mL).
